Reference: patent US7375088B2, “Polyene polyketides, processes for their production and their use as a pharmaceutical” (Thallion Pharmaceuticals Inc., priority 2003, dated 2008)
In brackets after ≈: the same amount, converted by molar mass. Where two headings read alike, the source gives them in different places.

Columns and labels:
[1] = tested on: Aspergillus flavus ATCC 204304; assay: MIC broth microdilution assay
Method: (§1) Test compound preparation: The test article was prepared as 100× stock solutions in DMSO, with concentrations ranging from 3.2 mg/ml to 0.0625 mg/ml (a two-fold dilution series over 10 points). The first dilution (3.2 mg/ml) was prepared by resuspending 0.5 mg of each test article in 156.25 μl of DMSO. The stock is then serially diluted by two-fold increments to obtain the desired concentration range.
(§2) Inoculum preparation: For fungal strains, the inoculum was prepared as follows. From an overnight culture in Yeast Media broth, cell density was adjusted in 0.85% saline to 0.5 McFarland. This procedure yielded a stock suspension of about 5×10^6 cells/ml. Following thorough vortexing, a working suspension was prepared by diluting the stock 1:50 in RPMI 1640, and then further diluting it 1:20 with RPMI 1640 to obtain the 2× test inoculum (about 5×10^3 cells/ml). For filamentous fungi, the inoculum was prepared as follows. […]
(§3) 50 μl of the final cell dilution (yeast, filamentous fungi or bacteria) of each indicator strain was added to each corresponding well of the microplate containing 50 μl of diluted drug or media alone. […] MIC readings were determined at 24 and 48 hrs for the Candida and Aspergillus species, and at 48 and 72 hrs for Cryptococcus neoformans. MIC readout for each indicator was determined as the lowest concentration of test compound resulting in total absence of growth.

[2] = tested on: Candida glabrata LSPQ 0250; assay: MIC broth microdilution assay; conditions: Nakaseomyces glabratus
Method: as §1, §2, §3

Aspergillus flavus = assay: Disk diffusion assay (MEC and zone of inhibition); type: cell-based
[3] = tested on: 60 different human tumor cell lines; assay: NCI in vitro antiproliferative screen, 60 human tumor cell lines (SRB, GI50); type: cell-based
Method: In Vitro antipoliferative study of Compound 2a was performed by the National Cancer Institute (National Institutes of Health, Bethesda, Md., USA) against a panel of cancer cell lines in order to determine the concentrations needed to obtain a 50% inhibition of cell proliferation (IC50). The operation of this unique screen utilizes 60 different human tumor cell lines, representing leukemia, melanoma, and cancers of the lung, colon, brain, ovary, breast prostate and kidney. Compound 2(a) was provided as a lyophilized powder with an estimated purity of 90+%. The compound was stored at −20° C. until day of use.
The human tumor cell lines of the cancer-screening panel were grown in RPMI 1640 medium containing 5% fetal bovine serum and 2 mM L-glutamine. For a typical screening experiment, cells were inoculated into 96 well microtiter plates in 100 μl at plating densities ranging from 5000 to 40,000 cells/well depending on the doubling time of individual cell lines (Table 8). After cell inoculation, the microtiter plates were incubated at 37° C., under 5% CO2, 95% air and 100% relative humidity for 24 hours prior to addition of the experimental drugs.
After 24 hours, two plates of each cell line were fixed in situ with TCA, to represent a measurement of the cell population for each cell line at the time of drug addition (Tz). Compound 2(a) was solubilized in dimethyl sulfoxide at 400-fold the desired final maximum test concentration and stored frozen prior to use. At the time of drug addition, an aliquot of frozen concentrate was thawed and diluted to twice the desired final maximum test concentration with complete medium containing 50 μg/ml gentamicin. Additional four, serial dilutions were made to provide a total of five drug concentrations plus control. Aliquots of 100 μl of these different drug dilutions were added to the appropriate microtiter wells already containing 100 μl of medium, resulting in the required final drug concentrations (2.5×10^−5 M to 2.5×10^−9 M).
Following drug addition, the plates were incubated for an additional 48 hours at 37° C., 5% CO2, 95% air, and 100% relative humidity. For adherent cells, the assay was terminated by the addition of cold TCA. Cells were fixed in situ by the gentle addition of 50 μl of cold 50% (w/v) TCA (final concentration, 10% TCA) and incubation for 60 minutes at 4° C. The supernatant was discarded, and the plates were washed five times with tap water and air-dried. Sulforhodamine B (SRB) solution (100 μl) at 0.4% (w/v) in 1% acetic acid was added to each well, and plates were incubated for 10 minutes at room temperature. After staining, unbound dye was removed by washing five times with 1% acetic acid and the plates were air-dried. Bound stain was subsequently solubilized with 10 mM trizma base, and the absorbance was read on an automated plate reader at a wavelength of 515 nm. For suspension cells, the methodology was the same except that the assay was terminated by fixing settled cells at the bottom of the wells by gently adding 50 μl of 80% TCA (final concentration, 16% TCA).
The growth inhibitory power of compound 2(a) was measured by NCl utilizing the GI50 value, rather than the classical IC50 value. The GI50 value emphasizes the correction for the cell count at time zero and, using the seven adsorbance measurements [time zero (Tz), control growth (C), and the test growth in the presence of drug at each of the five concentration levels (Ti)], GI50 is calculated as [(Ti−Tz)/(C−Tz)×100=−50. which is the drug concentration resulting in a 50% reduction in the net protein increase (as measured by SRB staining) in control cells during the drug incubation.

[4] = tested on: Candida lusitaniae ATCC 200953; assay: MIC broth microdilution assay; conditions: Clavispora lusitaniae
Method: as §1, §2, §3

[5] = tested on: Cryptococcus neoformans ATCC 32045; assay: MIC broth microdilution assay
Method: as §1, §2, §3

Aspergillus fumigatus = assay: Disk diffusion assay (MEC and zone of inhibition); type: cell-based
[6] = at the MEC, 24 hours of incubation
[7] = disk diffusion, 24 hours of incubation

## CC(C=CCCC=CC=CC=CC=CC(=O)NC1=C(O)CCC1=O)C(O)C(C)C(O)C=CC=CC=CC=CC=CCC(OC1OC(C)C(O)C(O)C1O)C(C)C(=O)CC(O)CC(O)CC(O)C=CCC(O)CC(O)CC(O)CC(O)C=CCC(O)CC(O)CCCN (centres unmarked) [Compound 2(a), 56-Amino-15,17,33,35,37,41,43,45,47,51,53-undecahydroxy-14,16,30-trimethyl-31-oxo-29-(3,4,5-trihydroxy-6-methyl-tetrahydro-pyran-2-yloxy)-hexapentaconta-2,4,6,8,12,18,20,22,24,26,38,48-dodecaenoic acid (2-hydroxy-5-oxo-cyclopent-1-enyl)-amide]
[1]; ATCC204304, 24 h
  MIC: 4 µg/mL (≈ 3.08 µM)
[1]; ATCC204304, 48 h
  MIC: 8 µg/mL (≈ 6.17 µM)
[2]; LSPQ0250, 24 h
  MIC: 4 µg/mL (≈ 3.08 µM)
[2]; LSPQ0250, 48 h
  MIC: 8 µg/mL (≈ 6.17 µM)
Aspergillus flavus
  antifungal activity in disk diffusion assay: active
Aspergillus flavus; [6]
  ZOI (zone of inhibition of fungal growth calculated for each MEC): 2.7 mm
Aspergillus flavus; [7]
  MEC (minimum effective concentration): 2.5 µg/mL
[3]; 786-0, 48 h, 786-0, Renal cancer, read-out: GI50
  GI50: 3.07 µM
[3]; 48 h, MDA-MB-, Breast cancer
  GI50: 3.38 µM
[3]; 48 h, PC-3, Prostate cancer, read-out: GI50
  GI50: 2.66 µM
[3]; 48 h, all cell lines of the NCI screening panel, 48 hours drug incubation
  GI50: < 10 µM
[3]; A498, 48 h, A498, Renal cancer, read-out: GI50
  GI50: 4.82 µM
[3]; A549, 48 h, A549/ATCC, Non-small cell lung cancer, read-out: GI50
  GI50: 4.09 µM
[3]; ACHN, 48 h, ACHN, Renal cancer, read-out: GI50
  GI50: 2.96 µM
[3]; BT-549, 48 h, BT-549, Breast cancer, read-out: GI50
  GI50: 4.59 µM
[3]; CAKI-1, 48 h, CAKI-1, Renal cancer, read-out: GI50
  GI50: 2.99 µM
[3]; COLO 205, 48 h, COLO 205, Colon cancer, read-out: GI50
  GI50: 5 µM
[3]; DU-145, 48 h, DU-145, Prostate cancer, read-out: GI50
  GI50: 3.78 µM
[3]; EKVX, 48 h, EKVX, Non-small cell lung cancer, read-out: GI50
  GI50: 5.87 µM
[3]; HCT-15, 48 h, HCT-15, Colon cancer, read-out: GI50
  GI50: 3.25 µM
[3]; HCT-116, 48 h, HCT-116, Colon cancer, read-out: GI50
  GI50: 4.18 µM
[3]; HOP-62, 48 h, HOP-62, Non-small cell lung cancer, read-out: GI50
  GI50: 6.83 µM
[3]; HT-29, 48 h, HT29, Colon cancer, read-out: GI50
  GI50: 6.36 µM
[3]; IGROV-1, 48 h, IGROV1, Ovarian cancer, read-out: GI50
  GI50: 2.95 µM
[3]; K562, 48 h, K-562, Leukemia, read-out: GI50
  GI50: 9.18 µM
[3]; KM12, 48 h, KM12, Colon cancer, read-out: GI50
  GI50: 2.76 µM
[3]; LOX IMVI, 48 h, LOX IMVI, Melanoma, read-out: GI50
  GI50: 3.73 µM
[3]; M14, 48 h, M14, Melanoma, read-out: GI50
  GI50: 4.15 µM
[3]; MCF7, 48 h, MCF7, Breast cancer, read-out: GI50
  GI50: 4.22 µM
[3]; MDA-MB-435, 48 h, MDA-MB-435, Breast cancer, read-out: GI50
  GI50: 3.26 µM
[3]; MOLT-4, 48 h, MOLT-4, Leukemia, read-out: GI50
  GI50: 5.57 µM
[3]; Malme-3M, 48 h, MALME-3M, Melanoma, read-out: GI50
  GI50: 2.4 µM
[3]; NCI-H23, 48 h, NCI-H23, Non-small cell lung cancer, read-out: GI50
  GI50: 4.25 µM
[3]; NCI-H226, 48 h, NCI-H226, Non-small cell lung cancer, read-out: GI50
  GI50: 3.1 µM
[3]; NCI-H322M, Non-small cell lung cancer, 48 h, read-out: GI50
  GI50: 3.48 µM
[3]; NCI-H460, 48 h, NCI-H460, Non-small cell lung cancer, read-out: GI50
  GI50: 3.83 µM
[3]; NCI-H522, 48 h, NCI-H522, Non-small cell lung cancer, read-out: GI50
  GI50: 2.8 µM
[3]; NCI/ADR-RES, 48 h, NCI/ADR-RES, Breast cancer, read-out: GI50
  GI50: 4.76 µM
[3]; OVCAR-3, 48 h, OVCAR-3, Ovarian cancer, read-out: GI50
  GI50: 3.4 µM
[3]; OVCAR-4, 48 h, OVCAR-4, Ovarian cancer, read-out: GI50
  GI50: 4.48 µM
[3]; OVCAR-5, 48 h, OVCAR-5, Ovarian cancer, read-out: GI50
  GI50: 4 µM
[3]; OVCAR-8, 48 h, OVCAR-8, Ovarian cancer, read-out: GI50
  GI50: 4.34 µM
[3]; RXF 393, 48 h, RXF 393, Renal cancer, read-out: GI50
  GI50: 1.2 µM
[3]; SF-268, 48 h, SF-268, CNS cancer, read-out: GI50
  GI50: 3.64 µM
[3]; SF-295, 48 h, SF-295, CNS cancer, read-out: GI50
  GI50: 3.91 µM
[3]; SK-MEL-2, 48 h, SK-MEL-2, Melanoma, read-out: GI50
  GI50: 4.34 µM
[3]; SK-MEL-5, 48 h, SK-MEL-5, Melanoma, read-out: GI50
  GI50: 4.16 µM
[3]; SK-MEL-28, 48 h, SK-MEL-28, Melanoma, read-out: GI50
  GI50: 6.75 µM
[3]; SK-OV-3, 48 h, SK-OV-3, Ovarian cancer, read-out: GI50
  GI50: 7.94 µM
[3]; SNB-19, 48 h, SNB-19, CNS cancer, read-out: GI50
  GI50: 5.58 µM
[3]; SNB-75, 48 h, SNB-75, CNS cancer, read-out: GI50
  GI50: 3.87 µM
[3]; SW-620, 48 h, SW-620, Colon cancer, read-out: GI50
  GI50: 5.35 µM
[3]; T47D, 48 h, T-47D, Breast cancer, read-out: GI50
  GI50: 6 µM
[3]; TK-10, 48 h, TK-10, Renal cancer, read-out: GI50
  GI50: 3.32 µM
[3]; U-251, 48 h, U251, CNS cancer, read-out: GI50
  GI50: 3.65 µM
[3]; UACC-62, 48 h, UACC-62, Melanoma, read-out: GI50
  GI50: 2.68 µM
[3]; UACC-257, 48 h, UACC-257, Melanoma, read-out: GI50
  GI50: 3.74 µM
[3]; UO-31, 48 h, UO-31, Renal cancer, read-out: GI50
  GI50: 3.65 µM
[4]; ATCC200953, 24 h
  MIC: 4 µg/mL (≈ 3.08 µM)
[4]; ATCC200953, 48 h
  MIC: 4 µg/mL (≈ 3.08 µM)
[5]; ATCC32045, 48 h
  MIC: 2 µg/mL (≈ 1.54 µM)
[5]; ATCC32045, 72 h
  MIC: 4 µg/mL (≈ 3.08 µM)
Aspergillus fumigatus
  antifungal activity in disk diffusion assay: active
Aspergillus fumigatus; [6]
  ZOI (zone of inhibition of fungal growth calculated for each MEC): 2.7 mm
Aspergillus fumigatus; [7]
  MEC (minimum effective concentration): 2.5 µg/mL
